From ChEMBL document CHEMBL1201862, “PubChem BioAssay data set” (2004)
Activity calls are given as the source filed them.

Experiments:
[1] = biological target: T1, RNA-binding protein pos-1 (Caenorhabditis elegans, UniProt G5EF15); assay: inhibitors of POS-1/mex-3 RNA binding, dose response, biochemical, fluorescence polarization (AID 1964);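 note: purified POS-1 fused to maltose binding protein made in E. coli; potency of compounds blocking POS-1 binding to fluorescent RNA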
T1 sequence (G5EF15 whole entry): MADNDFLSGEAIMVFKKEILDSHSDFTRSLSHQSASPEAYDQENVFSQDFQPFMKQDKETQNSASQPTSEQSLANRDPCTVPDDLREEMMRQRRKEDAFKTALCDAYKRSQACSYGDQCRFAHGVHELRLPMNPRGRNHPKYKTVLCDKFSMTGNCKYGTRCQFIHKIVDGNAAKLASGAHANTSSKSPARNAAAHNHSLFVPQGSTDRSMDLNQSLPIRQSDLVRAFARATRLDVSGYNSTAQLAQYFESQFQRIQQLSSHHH

[2] = biological target: Genome polyprotein (dengue virus type 2, UniProt P29990); assay: Dengue-2 NS5 methyltransferase inhibitors, primary screen, biochemical, confirmation dose response (AID 588689); format: functional
[3] = biological target: DNA dC->dU-editing enzyme APOBEC-3G (Homo sapiens, UniProt Q9HC16); format: functional;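 note: Dose-response counterscreen measuring inhibition of APOBEC3G DNA deaminase activity, run while confirming APOBEC3A inhibitors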
[4] = biological target: DNA dC->dU-editing enzyme APOBEC-3A (Homo sapiens, UniProt P31941); assay: Dose Response confirmation of small molecule APOBEC3A DNA Deaminase Inhibitors via a fluorescence-based single-stranded DNA deaminase assay. [Related pubchem assays (depositor defined):AID493011, AID493024]; format: functional
[5] = biological target: T2, Carboxy-terminal domain RNA polymerase II polypeptide A small phosphatase 1 (Homo sapiens, UniProt Q9GZU7); assay: inhibitors of CTDSP1, concentration-response testing, biochemical assay, absorbance-based, actives from ultra-high-throughput screening (AID 540297); format: functional
T2 sequence (Q9GZU7 whole entry): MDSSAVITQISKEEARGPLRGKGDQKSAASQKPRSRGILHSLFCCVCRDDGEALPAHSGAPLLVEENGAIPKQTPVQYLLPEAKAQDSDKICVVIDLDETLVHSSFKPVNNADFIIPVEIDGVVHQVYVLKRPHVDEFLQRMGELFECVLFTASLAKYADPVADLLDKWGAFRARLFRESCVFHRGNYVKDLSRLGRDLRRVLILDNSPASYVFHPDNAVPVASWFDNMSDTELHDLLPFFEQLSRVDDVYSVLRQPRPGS

[6] = biological target: T3, Zinc finger protein mex-5 (Caenorhabditis elegans, UniProt Q9XUB2); assay: MEX-5/TCR-2 RNA interaction inhibitors, dose response, biochemical, C. elegans, fluorescence polarization (AID 1960)
T3 sequence (Q9XUB2 whole entry): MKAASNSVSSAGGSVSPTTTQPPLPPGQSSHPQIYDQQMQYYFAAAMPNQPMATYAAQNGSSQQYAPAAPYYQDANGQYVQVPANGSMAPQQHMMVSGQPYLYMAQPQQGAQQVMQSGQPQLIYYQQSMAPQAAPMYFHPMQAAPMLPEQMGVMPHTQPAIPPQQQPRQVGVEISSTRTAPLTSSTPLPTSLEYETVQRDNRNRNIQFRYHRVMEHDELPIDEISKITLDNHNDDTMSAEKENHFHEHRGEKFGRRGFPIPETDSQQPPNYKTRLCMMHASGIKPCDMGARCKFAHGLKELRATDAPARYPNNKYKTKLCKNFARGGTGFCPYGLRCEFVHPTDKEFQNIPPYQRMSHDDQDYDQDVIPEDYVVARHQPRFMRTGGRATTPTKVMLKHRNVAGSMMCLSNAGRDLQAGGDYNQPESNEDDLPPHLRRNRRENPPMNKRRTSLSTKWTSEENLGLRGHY

[7] = biological target: G-protein coupled receptor 55 (Homo sapiens, UniProt Q9Y2T6); assay: GPR55 antagonists blocking LPI-driven arrestin recruitment, primary screen, imaging, U2OS, beta-arrestin-GFP, LPI agonist (AID 2013); format: functional;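 note: antagonist potency measured as reduced agonist-driven arrestin aggregation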
[8] = HEp-2 cell cytotoxicity, dose response, cytotoxicity control for RSV inhibitor project, HTS (AID 2410); format: functional; conditions: human respiratory syncytial virus
[9] = system: Escherichia coli; assay: microbe, parasite or virus in culture
[10] = biological target: T4, Coagulation factor XII (Homo sapiens, UniProt P00748); format: functional;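 note: activated factor XIIa alpha cleaving a fluorogenic AMC peptide substrate; inhibitor potency from loss of enzyme activity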
T4 sequence (P00748 whole entry): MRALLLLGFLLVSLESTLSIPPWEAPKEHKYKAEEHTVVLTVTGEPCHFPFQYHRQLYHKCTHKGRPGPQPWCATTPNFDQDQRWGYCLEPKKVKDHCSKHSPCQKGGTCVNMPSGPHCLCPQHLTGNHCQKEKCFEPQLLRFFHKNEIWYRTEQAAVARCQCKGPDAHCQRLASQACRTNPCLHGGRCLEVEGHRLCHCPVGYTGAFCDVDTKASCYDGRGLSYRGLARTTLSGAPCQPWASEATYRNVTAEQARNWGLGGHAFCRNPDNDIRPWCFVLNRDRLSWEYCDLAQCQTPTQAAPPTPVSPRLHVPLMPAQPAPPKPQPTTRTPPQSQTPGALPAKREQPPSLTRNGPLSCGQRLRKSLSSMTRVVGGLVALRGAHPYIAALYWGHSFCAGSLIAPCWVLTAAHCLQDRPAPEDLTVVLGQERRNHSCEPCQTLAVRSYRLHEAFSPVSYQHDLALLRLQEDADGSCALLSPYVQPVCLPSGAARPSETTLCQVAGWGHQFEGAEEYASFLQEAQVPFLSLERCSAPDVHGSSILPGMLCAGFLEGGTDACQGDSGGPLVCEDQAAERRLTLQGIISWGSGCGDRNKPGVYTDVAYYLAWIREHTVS

[11] = biological target: Peroxisome proliferator-activated receptor gamma/Nuclear receptor coactivator 1 (Homo sapiens, UniProt P37231); format: functional;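 note: agonist potency as compounds enhance coactivator SRC-1 recruitment to PPARgamma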
[12] = biological target: Peroxisome proliferator-activated receptor gamma/Nuclear receptor coactivator 2 (Homo sapiens, UniProt P37231); format: functional;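 note: agonist potency for raising coactivator recruitment to the receptor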
[13] = biological target: Peroxisome proliferator-activated receptor gamma/Nuclear receptor coactivator 3 (Homo sapiens, UniProt P37231); format: functional;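 note: agonist potency for raising coactivator recruitment to the receptor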
[14] = biological target: Induced myeloid leukemia cell differentiation protein Mcl-1 (Homo sapiens, UniProt Q07820); format: functional
[15] = biological target: T5, Rac GTPase-activating protein 1 (Homo sapiens, UniProt Q9H0H5); assay: MgcRacGAP GTPase-activating activity inhibitors, confirmation, biochemical, ADP Hunter fluorescence, primary and confirmatory (AID 624330); format: functional
T5 sequence (Q9H0H5 whole entry): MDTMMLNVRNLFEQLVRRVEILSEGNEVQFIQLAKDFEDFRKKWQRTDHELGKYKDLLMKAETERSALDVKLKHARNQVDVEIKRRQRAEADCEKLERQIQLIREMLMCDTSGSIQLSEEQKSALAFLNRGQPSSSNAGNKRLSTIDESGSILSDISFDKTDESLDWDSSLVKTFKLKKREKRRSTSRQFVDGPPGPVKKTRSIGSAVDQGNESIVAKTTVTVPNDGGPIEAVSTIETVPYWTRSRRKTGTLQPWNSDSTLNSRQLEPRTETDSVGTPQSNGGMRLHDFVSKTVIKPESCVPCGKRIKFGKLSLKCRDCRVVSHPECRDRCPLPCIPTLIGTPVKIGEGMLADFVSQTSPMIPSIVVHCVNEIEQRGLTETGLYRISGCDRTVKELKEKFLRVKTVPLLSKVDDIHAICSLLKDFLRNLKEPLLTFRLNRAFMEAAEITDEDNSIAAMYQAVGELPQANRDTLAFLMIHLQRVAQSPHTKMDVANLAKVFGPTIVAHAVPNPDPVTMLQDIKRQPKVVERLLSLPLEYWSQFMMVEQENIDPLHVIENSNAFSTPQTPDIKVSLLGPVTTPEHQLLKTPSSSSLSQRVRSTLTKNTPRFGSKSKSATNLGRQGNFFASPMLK

[16] = system: HEK293; assay: NOD1 signaling inhibitors, primary screen, cell-based, luminescence, uHTS (AID 1578); format: functional; conditions: Homo sapiens
[17] = system: HEK293; assay: cells; format: functional, cell-based; conditions: Homo sapiens
[18] = system: HEK293; assay: cells; format: functional, cell-based; conditions: Homo sapiens; remark: listed apart in the source
[19] = system: HEK293; assay: NOD2 signaling inhibitors in MDP-stimulated cells, cell-based, uHTS, luminescence (AID 2001); format: functional; conditions: Homo sapiens
[20] = system: HEK293; assay: cells; format: functional, cell-based; conditions: Homo sapiens; remark: listed apart in the source
[21] = biological target: Nucleotide-binding oligomerization domain-containing protein 2 (Homo sapiens, UniProt Q9HC29); assay: NOD2 signaling inhibitors, cell-based, luminescence, uHTS, HEK293 (AID 1566); format: functional
[22] = biological target: T6, Alkaline phosphatase, tissue-nonspecific isozyme (Homo sapiens, UniProt P05186); assay: human TNAP enzyme inhibitors, SAR follow-up, biochemical, luminescent, dose response (AID 1056)
T6 sequence (P05186 whole entry): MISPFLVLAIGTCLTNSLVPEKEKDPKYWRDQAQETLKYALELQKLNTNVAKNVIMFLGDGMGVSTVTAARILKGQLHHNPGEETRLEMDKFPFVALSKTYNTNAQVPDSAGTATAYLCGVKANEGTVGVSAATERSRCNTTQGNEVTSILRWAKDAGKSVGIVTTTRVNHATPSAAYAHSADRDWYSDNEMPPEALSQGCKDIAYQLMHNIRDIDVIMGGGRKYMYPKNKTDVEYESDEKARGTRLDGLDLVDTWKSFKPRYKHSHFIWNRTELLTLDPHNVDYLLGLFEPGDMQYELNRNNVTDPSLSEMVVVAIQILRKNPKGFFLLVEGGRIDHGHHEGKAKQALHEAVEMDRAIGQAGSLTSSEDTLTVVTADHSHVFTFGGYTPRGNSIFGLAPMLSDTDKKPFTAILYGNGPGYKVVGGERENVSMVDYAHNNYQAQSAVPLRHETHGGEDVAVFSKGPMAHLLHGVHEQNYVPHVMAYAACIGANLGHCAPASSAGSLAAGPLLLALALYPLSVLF

[23] = C. albicans growth with fluconazole, confirmation, fluorescence, retest (AID 2467); format: functional, cell-based
[24] = NIH-3T3 fibroblast cytotoxicity, dose response, cytotoxicity control, cell-based, fluorescence, Alamar Blue, secondary assay (AID 2327); format: functional;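 note: NIH-3T3 mouse fibroblasts cultured with fluconazole at 8 µg/mL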
[25] = biological target: T7, Ubiquitin-conjugating enzyme E2 N (Homo sapiens, UniProt P61088); format: functional;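 note: Dose-response confirmation in a TR-FRET assay detecting UBC13-driven polyubiquitin chain formation, inhibition measured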
T7 sequence (P61088 whole entry): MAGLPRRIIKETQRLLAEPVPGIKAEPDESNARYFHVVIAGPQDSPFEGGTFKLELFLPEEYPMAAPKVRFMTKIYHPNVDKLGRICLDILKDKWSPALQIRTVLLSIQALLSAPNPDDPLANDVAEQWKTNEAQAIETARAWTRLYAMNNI

[26] = inhibitors of intracellular T. cruzi replication, confirmation, NIH3T3 host cells, beta-gal luminescence (AID 2044); format: functional, cell-based;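 note: intracellular parasites grown in NIH/3T3 mouse fibroblasts as host cells; luminescent beta-galactosidase reporter signal from transgenic T. cruzi replicating inside host cells; inhibitors lower the luminescence signal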
[27] = cytotoxicity toward NIH3T3 fibroblasts, dose response, counter-screen, cell-based, ATP luminescence, mouse fibroblasts (AID 2010); format: functional;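 note: cells exposed to compound for about 90 hours before reading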

Chain of DNA dC->dU-editing enzyme APOBEC-3G (Q9HC16 whole entry): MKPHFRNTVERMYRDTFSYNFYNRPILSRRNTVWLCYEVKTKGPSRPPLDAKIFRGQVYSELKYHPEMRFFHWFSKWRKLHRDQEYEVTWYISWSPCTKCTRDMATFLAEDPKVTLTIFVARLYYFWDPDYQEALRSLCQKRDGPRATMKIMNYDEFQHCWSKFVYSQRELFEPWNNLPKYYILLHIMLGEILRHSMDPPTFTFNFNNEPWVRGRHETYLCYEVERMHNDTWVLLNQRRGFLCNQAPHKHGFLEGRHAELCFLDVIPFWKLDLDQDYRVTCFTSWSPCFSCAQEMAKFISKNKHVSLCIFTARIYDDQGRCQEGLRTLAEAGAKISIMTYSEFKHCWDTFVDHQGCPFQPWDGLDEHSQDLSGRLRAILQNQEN
Chain of G-protein coupled receptor 55 (Q9Y2T6 whole entry): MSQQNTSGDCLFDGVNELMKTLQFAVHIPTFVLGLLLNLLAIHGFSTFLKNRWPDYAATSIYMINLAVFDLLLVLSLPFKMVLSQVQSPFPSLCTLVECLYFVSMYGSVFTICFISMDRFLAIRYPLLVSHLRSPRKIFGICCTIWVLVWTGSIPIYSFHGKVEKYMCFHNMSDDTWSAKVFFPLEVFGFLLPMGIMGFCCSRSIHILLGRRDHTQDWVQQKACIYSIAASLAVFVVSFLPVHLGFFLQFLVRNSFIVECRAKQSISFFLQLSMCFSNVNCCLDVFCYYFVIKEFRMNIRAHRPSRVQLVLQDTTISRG
Chain of DNA dC->dU-editing enzyme APOBEC-3A (P31941 whole entry, the tested form may be a part): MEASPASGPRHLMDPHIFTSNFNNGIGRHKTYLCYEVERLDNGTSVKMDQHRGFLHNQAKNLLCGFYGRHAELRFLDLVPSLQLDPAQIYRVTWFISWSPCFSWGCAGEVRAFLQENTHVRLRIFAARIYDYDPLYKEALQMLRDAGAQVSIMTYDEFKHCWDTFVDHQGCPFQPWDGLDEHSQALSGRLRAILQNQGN
Chain of Nucleotide-binding oligomerization domain-containing protein 2 (Q9HC29 whole entry, the tested form may be a part): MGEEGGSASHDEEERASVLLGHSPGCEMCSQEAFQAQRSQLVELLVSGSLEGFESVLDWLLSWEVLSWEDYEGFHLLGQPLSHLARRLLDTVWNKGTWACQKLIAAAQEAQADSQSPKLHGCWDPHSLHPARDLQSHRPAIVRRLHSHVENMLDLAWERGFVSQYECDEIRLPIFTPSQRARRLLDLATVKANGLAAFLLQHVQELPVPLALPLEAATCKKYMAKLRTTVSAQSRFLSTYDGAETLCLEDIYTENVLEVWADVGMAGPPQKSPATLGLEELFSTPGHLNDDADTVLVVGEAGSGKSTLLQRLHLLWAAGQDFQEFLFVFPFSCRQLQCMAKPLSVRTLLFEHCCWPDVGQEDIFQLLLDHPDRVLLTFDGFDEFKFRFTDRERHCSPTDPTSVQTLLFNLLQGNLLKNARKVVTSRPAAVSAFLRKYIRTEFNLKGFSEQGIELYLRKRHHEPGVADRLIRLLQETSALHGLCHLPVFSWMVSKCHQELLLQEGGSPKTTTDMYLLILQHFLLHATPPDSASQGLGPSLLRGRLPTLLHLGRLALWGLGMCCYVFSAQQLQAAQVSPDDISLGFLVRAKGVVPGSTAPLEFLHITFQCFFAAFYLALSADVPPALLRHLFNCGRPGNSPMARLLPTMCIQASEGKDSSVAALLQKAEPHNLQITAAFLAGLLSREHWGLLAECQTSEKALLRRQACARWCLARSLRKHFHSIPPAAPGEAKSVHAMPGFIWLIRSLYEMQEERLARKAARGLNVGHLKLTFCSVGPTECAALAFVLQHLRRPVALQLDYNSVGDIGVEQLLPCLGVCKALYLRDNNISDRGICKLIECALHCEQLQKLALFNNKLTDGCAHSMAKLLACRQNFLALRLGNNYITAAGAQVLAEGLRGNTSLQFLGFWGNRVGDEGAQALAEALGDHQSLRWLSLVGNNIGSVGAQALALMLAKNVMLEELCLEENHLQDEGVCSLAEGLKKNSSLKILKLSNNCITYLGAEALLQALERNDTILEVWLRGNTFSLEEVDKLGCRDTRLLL
Chain of Induced myeloid leukemia cell differentiation protein Mcl-1 (Q07820 whole entry): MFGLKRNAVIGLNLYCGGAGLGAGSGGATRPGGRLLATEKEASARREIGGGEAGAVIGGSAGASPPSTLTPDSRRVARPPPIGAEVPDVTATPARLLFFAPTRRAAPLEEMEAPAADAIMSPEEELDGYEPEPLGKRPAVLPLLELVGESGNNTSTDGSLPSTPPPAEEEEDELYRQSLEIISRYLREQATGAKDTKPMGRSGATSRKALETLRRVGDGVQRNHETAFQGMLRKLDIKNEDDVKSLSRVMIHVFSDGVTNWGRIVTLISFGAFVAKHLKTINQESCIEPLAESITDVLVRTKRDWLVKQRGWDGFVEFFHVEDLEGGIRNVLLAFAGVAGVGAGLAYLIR
Chain of Peroxisome proliferator-activated receptor gamma/Nuclear receptor coactivator 3 (P37231 whole entry): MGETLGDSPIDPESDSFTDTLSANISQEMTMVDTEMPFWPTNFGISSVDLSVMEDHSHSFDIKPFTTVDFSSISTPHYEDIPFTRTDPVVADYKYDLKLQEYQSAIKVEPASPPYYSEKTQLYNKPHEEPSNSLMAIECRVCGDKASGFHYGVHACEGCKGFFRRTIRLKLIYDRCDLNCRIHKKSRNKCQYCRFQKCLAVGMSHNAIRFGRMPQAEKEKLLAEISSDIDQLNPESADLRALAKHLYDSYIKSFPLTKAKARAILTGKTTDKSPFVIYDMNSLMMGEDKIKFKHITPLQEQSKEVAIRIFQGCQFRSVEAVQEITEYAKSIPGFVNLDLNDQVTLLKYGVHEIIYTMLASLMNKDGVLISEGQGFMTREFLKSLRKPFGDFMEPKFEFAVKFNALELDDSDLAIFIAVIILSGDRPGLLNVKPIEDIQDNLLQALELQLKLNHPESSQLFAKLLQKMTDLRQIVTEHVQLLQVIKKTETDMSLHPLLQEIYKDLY
Chain of Peroxisome proliferator-activated receptor gamma/Nuclear receptor coactivator 3 (Q9Y6Q9 whole entry, further chain): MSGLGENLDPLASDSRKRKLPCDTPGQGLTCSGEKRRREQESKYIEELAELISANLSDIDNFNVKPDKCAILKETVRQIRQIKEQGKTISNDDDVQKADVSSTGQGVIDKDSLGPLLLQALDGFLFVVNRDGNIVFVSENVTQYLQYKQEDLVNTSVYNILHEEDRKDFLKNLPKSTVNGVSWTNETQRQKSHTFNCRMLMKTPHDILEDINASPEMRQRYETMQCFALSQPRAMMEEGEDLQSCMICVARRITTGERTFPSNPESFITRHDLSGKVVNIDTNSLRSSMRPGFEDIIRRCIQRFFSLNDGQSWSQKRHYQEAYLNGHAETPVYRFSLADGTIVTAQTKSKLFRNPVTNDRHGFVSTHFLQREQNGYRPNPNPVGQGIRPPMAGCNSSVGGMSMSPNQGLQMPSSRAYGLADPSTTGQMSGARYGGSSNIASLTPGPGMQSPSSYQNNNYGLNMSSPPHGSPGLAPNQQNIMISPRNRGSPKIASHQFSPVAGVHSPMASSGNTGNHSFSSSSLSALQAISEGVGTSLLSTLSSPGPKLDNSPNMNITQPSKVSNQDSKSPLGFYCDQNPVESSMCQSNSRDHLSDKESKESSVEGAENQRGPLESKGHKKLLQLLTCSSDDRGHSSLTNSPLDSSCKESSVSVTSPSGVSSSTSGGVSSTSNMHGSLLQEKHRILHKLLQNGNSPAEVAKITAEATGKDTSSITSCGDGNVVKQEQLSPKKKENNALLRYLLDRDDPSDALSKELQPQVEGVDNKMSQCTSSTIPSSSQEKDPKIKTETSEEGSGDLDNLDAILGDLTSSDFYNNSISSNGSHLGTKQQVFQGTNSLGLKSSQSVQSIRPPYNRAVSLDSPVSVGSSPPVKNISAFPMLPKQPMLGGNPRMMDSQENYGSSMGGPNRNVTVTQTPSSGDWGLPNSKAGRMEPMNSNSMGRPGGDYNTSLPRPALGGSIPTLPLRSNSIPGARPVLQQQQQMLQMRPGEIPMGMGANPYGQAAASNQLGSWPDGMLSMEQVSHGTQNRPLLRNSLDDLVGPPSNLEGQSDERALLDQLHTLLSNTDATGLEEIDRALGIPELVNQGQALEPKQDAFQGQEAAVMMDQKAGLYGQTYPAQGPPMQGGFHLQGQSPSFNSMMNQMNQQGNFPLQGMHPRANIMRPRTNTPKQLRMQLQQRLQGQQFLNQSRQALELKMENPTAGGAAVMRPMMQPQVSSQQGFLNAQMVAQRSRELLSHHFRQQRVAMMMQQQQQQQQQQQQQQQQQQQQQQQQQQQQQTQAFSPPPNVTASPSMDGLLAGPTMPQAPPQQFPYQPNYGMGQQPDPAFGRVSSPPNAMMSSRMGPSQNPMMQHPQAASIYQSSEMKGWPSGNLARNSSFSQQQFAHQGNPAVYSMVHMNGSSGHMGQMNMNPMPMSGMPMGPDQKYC

Cc1cc(C(=O)O)ccc1-c1ccc(/C=C2\NC(=O)N(Cc3ccc(F)cc3)C2=O)o1
EC50 [1]: 195 µM (active) | IC50 [2]: > 100 µM (active) | IC50 [3]: 42 µM (active) | IC50 [4]: 20.8 µM (active) | IC50 [5]: 3.42 µM (active) | EC50 [6]: 191 µM (active)

COc1cc(NS(=O)(=O)c2ccc(Nc3nc(-c4ccccc4)cs3)cc2)nc(OC)n1
IC50 [7]: 4.49 µM (active) | CC50 [8]: 11.3 µM (active)

CC(C)(C)OC(=O)[C@H](Cc1ccccc1)NC(=O)c1[nH]cnc1C(=O)NC1CCN(C(=O)OC(C)(C)C)CC1
AC50 [9]: 19 µM (active) | IC50 [7]: 5.3 µM (active)

CNC(=O)c1ccc(NC(=O)CC23CC4CC(CC(C4)C2)C3)cc1
IC50 [7]: 3.14 µM (active)

Cc1ccc(NC(=O)CSc2nnc([C@H](C)NC(=O)OC(C)(C)C)o2)c(C)c1
IC50 [10]: > 50 µM (inactive)

CCNc1ccc2c(Cl)cc(=O)oc2c1
IC50 [10]: > 50 µM (inactive)

CC(C)(O)C#Cc1ccc(CN2CCN(C3CCCCC3)C(CCO)C2)cc1 (centres undefined)
EC50 [11]: > 79.4 µM (not active) | EC50 [12]: > 79.4 µM (not active) | EC50 [13]: > 79.4 µM (not active) | IC50 [14]: 21.2 µM (not active)

CCc1c(C)nc2ncnn2c1N1CCC(C(=O)Nc2ccccc2)CC1
IC50 [10]: > 50 µM (inactive)

COCCNCC(=O)Nc1nc(C)cs1
IC50 [15]: 105 µM (active) | IC50 [10]: > 50 µM (inactive)

Cc1ccc(S(=O)(=O)/C(=C/Cl)NC(=O)c2ccccc2)cc1
EC50 [16]: 6.37 µM (active) | IC50 [17]: 3.6 µM (active) | IC50 [18]: > 20 µM (inactive) | IC50 [19]: 3.32 µM (active) | IC50 [20]: > 20 µM (inactive) | EC50 [21]: 14.3 µM (active)

CCCCn1c(N)c(N(CCOC)C(=O)c2cc(-c3ccc(OC)c(OC)c3)nc3ccccc23)c(=O)[nH]c1=O
IC50 [3]: 9.16 µM (active) | IC50 [4]: 7.62 µM (active)

O=C(Cn1ccnc1-c1ccccc1)c1ccc(O)c(O)c1
IC50 [22]: > 100 µM (inactive)

O=C(/C=C/c1ccco1)N1CCN(S(=O)(=O)c2cccc([N+](=O)[O-])c2)CC1
IC50 [3]: 23.6 µM (active) | IC50 [4]: 15.5 µM (active)

Cc1ccc(O)c(/N=C/c2cc(Cc3ccccc3)cc([N+](=O)[O-])c2O)c1
EC50 [16]: 6.21 µM (active) | IC50 [17]: > 20 µM (inactive) | EC50 [23]: 3.37 µM (active) | IC50 [15]: 37.8 µM (active) | IC50 [18]: > 20 µM (inactive) | IC50 [19]: 12.4 µM (inactive) | IC50 [20]: > 20 µM (inactive) | EC50 [24]: 13.8 µM (active) | EC50 [21]: 9.92 µM (active)

Cn1c(=O)c2c(ncn2Cc2ccccc2)n(C)c1=O
IC50 [25]: > 20 µM (inactive)

COc1ccc(/C=N/NS(=O)(=O)c2ccc(F)cc2)cc1COc1cc(F)ccc1[N+](=O)[O-]
EC50 [16]: > 20 µM (inactive) | IC50 [17]: 6.45 µM (active) | EC50 [26]: 2.19 µM (active) | EC50 [27]: > 60 µM (inconclusive) | IC50 [18]: > 20 µM (inactive) | IC50 [19]: > 20 µM (inactive) | IC50 [20]: > 20 µM (inactive) | EC50 [21]: > 20 µM (inactive)
